Laboratory results from patent US10682442B2, “Small molecule drug release from in situ forming degradable scaffolds incorporating hydrogels and bioceramic microparticles” (University of Kentucky Research Foundation, priority 2014, dated 2020).
Values after ≈ are worked out from the molar mass of the structure shown.

Assays:
[1] = Drug loading into PBAE microparticles (loading efficiency, surface vs bulk drug); type: physicochemical; details: pre-loaded; 100 mg/mL drug solution
Description: FIG. 6A graphically represents the processing method for creating PBAE microparticles, as well as the differences between pre- and post-loaded particles. […] This ratio allowed particles to swell without excess solution remaining, and expected drug loads were calculated under the assumption that all drug solution was imbibed by the microparticles. Particles were lyophilized overnight, briefly re-ground and sieved to break up aggregates, and stored in a vacuum chamber with desiccant. […] Drug-loaded PBAE slabs were ground with 75 wt % HA into particles and stored in a vacuum chamber with desiccant. Predicted values for drug loading using the pre-loading method were obtained by calculating swelling of PBAE in solution based on mass increase and assuming drug was homogeneously present in swollen hydrogels as well as surrounding solution. […] The mixtures containing ethanol and swollen PBAE microparticles were then centrifuged, and supernatants were analyzed using HPLC to detect simvastatin, as described below. Clodronate loading was measured with an identical technique using 50% ethanol, and was detected by absorbance as described below. […] Drug detected in the initial wash was deemed loosely bound to the surface of particles, while drug detected after the 24 hour soak was determined to be imbibed into the bulk of the particles.

[2] = In vitro drug release from in situ forming PLGA scaffolds in PBS (Example 1); type: physicochemical; details: for burst release within one day: freely mixed
Description: PLGA was added to NMP and stirred overnight until fully dissolved to create a 20 wt/wt % PLGA solution. […] HA was also mixed homogeneously prior to injection to bring the final mixture to 30 wt % HA. Clodronate-loaded PBAE microparticles pre-loaded with 50 mg/mL clodronate were added using an identical technique. […] FIG. 6B illustrates the differences between the proposed system and a traditional injectable system. Simvastatin and clodronate were measured as described below.
The scaffold mixture was injected dropwise through a 16 gauge, blunt-tipped dispensing needle into PBS at 5% wt/vol. Upon contacting PBS, surface PLGA immediately began to precipitate, forming semi-spherical scaffolds approximately 3 mm in diameter that sank to the bottom of the vial. Samples were kept in an incubator at 37° C. on a plate shaker for the duration of the study. Supernatant was collected and replaced at each time point, and these samples were preserved at 4° C. until analysis. Clodronate release was measured for three loading conditions: freely mixed clodronate without HA filler, freely mixed clodronate with HA filler, and clodronate pre-loaded into PBAE microparticles with HA filler. Because PBAE microparticles were fabricated with HA as a dispersing agent, drug release from loaded particles was not investigated without HA filler. Simvastatin release was measured for three loading conditions: freely mixed simvastatin without HA filler, freely mixed simvastatin with HA filler, and simvastatin pre-loaded into PBAE microparticles with HA filler.
Clodronate from collected supernatants were measured using a Powerwave HT (Biotek; Winooski, Vt., USA). In vitro release supernatant was pipetted into a UV-grade 96-well plate (Greiner Bio-One, Frickenhausen, Germany), and baseline absorbance was measured at 240 nm.
Drug release from polymeric systems is often analyzed using an adaptation of the Higuchi model by Peppas et al., widely known as the power law, to characterize release kinetics (Siepmann J, Peppas N A. Modeling of drug release from delivery systems based on hydroxypropyl methylcellulose (HPMC). Advanced Drug Delivery Reviews 2001; 48:139-57):
[formula] represents Tractional release or drug at time t, k is a constant encompassing scaffold and drug properties, and it is the release exponent used to characterize drug release. In the case of the spherical geometry (consistent with scaffolds formed via dropwise injection), n=0.43 corresponds to pure Fickian diffusion, n=0.85 corresponds to pure case II (polymer relaxation-based) transport, and values in between are combinations of the two, termed anomalous transport (Siepmann J, Peppas N A. Modeling of drug release from delivery systems based on hydroxypropyl methylcellulose (HPMC). Advanced Drug Delivery Reviews 2001; 48:139-57). Plots of
[formula] so release data were truncated to below 60% cumulative release when calculating n. Mass Loss and Degradation

[3] = physchem

Structure (SMILES): O=P(O)(O)C(Cl)(Cl)P(=O)(O)O [clodronate]
- loading efficiency [1]: 59%
- release rate ([2]; all loading conditions, day 20 through day 31): 3 %/day
- release rate ([2]; freely mixed without HA, through day 19): 0.6 %/day
- burst release within one day ([2]; with HA filler): 32%
- burst release within one day ([2]; without HA): 49%
- release rate ([2]; mixed with HA, through day 19): 1.3 %/day
- release exponent n (power law) ([2]; pre-loaded drug, initial release during burst (first day)): 0.49
- 1 day burst release ([2]; pre-loaded into PBAE microparticles, with HA filler): 32%
- release rate ([2]; pre-loaded into microparticles, through day 19): 1.3 %/day
- solubility ([3]; aqueous with cosolvent or surfactant or cyclodextrin): 20 mg/mL (≈ 81.7 mM)
- solubility ([3]; water): ≥ 100 mg/mL
